# According to PubChem BioAssay (NCI):
#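 A five-concentration, 48-hour dose response in 96-well plates underlies each endpoint, interpolated linearly between surrounding concentrations. Definition used: TGI = concentration required for complete inhibition of growth.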
# Experiments:
# Assay in all cases: inhibition of tumour cell growth, NCI panel, 48 h
# HS 578T breast = test system: HS 578T breast
# HT29 colon = test system: HT29 colon
# MCF7 breast = test system: MCF7 breast
# MOLT-4 leukemia = test system: MOLT-4 leukemia
# NCI-H23 lung = test system: NCI-H23 lung
# OVCAR-8 ovarian = test system: OVCAR-8 ovarian
# PC-3 prostate = test system: PC-3 prostate
# RPMI-8226 leukemia = test system: RPMI-8226 leukemia
# SF-295 CNS = test system: SF-295 CNS
# SK-MEL-2 melanoma = test system: SK-MEL-2 melanoma
# SK-MEL-28 melanoma = test system: SK-MEL-28 melanoma
# SN12C renal = test system: SN12C renal
# SNB-19 CNS = test system: SNB-19 CNS
# T-47D breast = test system: T-47D breast
# UACC-62 melanoma = test system: UACC-62 melanoma
# SNB-75 CNS = test system: SNB-75 CNS
SMILES,TGI (HS 578T breast) [µM],TGI (HT29 colon) [µM],TGI (MCF7 breast) [µM],TGI (MOLT-4 leukemia) [µM],TGI (NCI-H23 lung) [µM],TGI (OVCAR-8 ovarian) [µM],TGI (PC-3 prostate) [µM],TGI (RPMI-8226 leukemia) [µM],TGI (SF-295 CNS) [µM],TGI (SK-MEL-2 melanoma) [µM],TGI (SK-MEL-28 melanoma) [µM],TGI (SN12C renal) [µM],TGI (SNB-19 CNS) [µM],TGI (T-47D breast) [µM],TGI (UACC-62 melanoma) [µM],TGI (SNB-75 CNS) [µM]
CCCCCc1nnc(NS(=O)(=O)c2ccc(NC(=O)OCC(C)C)cc2)s1,> 100,46.1,> 100,54,> 100,> 100,> 100,41.4,> 100,53.5,95.5,> 100,> 100,> 100,> 100,
COc1cc([C@@H]2c3cc4c(cc3[C@@H](Nc3ccccc3C(=O)c3ccccc3)[C@H]3COC(=O)[C@H]23)OCO4)cc(OC)c1OC,> 100,,> 100,> 100,> 100,> 38.3,> 78.7,,> 100,> 100,> 100,> 100,> 100,> 100,,
O=C(CCC(=O)CC(O)(C(F)(F)F)C(F)(F)F)CC(O)(C(F)(F)F)C(F)(F)F,> 100,> 100,> 100,> 100,95.8,> 100,,97.8,> 100,,> 100,> 100,72.4,> 100,> 100,> 100
CCC/C=C1\CCC(CN(C)C)C1=O (configuration not stated),,17.9,,12.6,32.8,33.7,,2.75,> 55.3,29.7,14.9,32.7,> 67,,28.2,32.9
CCOC(=O)c1cc(I)c(-c2cc(C)no2)n1C,,> 100,,71.6,> 100,> 100,> 100,> 100,> 100,> 100,> 100,69.4,> 100,> 100,> 100,> 100
O=c1[nH]c2ccccc2c(O)c1/C=N/C(=S)NCc1ccccc1,,> 100,> 100,> 100,> 100,> 100,> 100,,> 100,> 100,> 100,> 100,> 100,> 100,> 100,> 100
CCOP(=O)(OCC)C(c1ccccc1)N(C(=O)NC(F)(F)F)c1cccc(F)c1 (configuration not stated),> 100,> 100,> 100,> 100,> 100,> 100,> 100,> 100,> 100,,> 100,> 100,> 100,,,> 100
Cc1ccc(-n2cc(-c3ccc(Cl)cc3)c3c(N/N=C4\SCC(=O)N4C)ncnc32)cc1,21.3,> 100,,> 100,45.7,> 100,10.9,> 100,9.37,6.18,6.23,> 100,63.1,> 100,11.2,
O=c1[nH]c(=O)n(C2CC(O)C(CO)O2)cc1NN=NCCCc1ccccc1 (configuration not stated),> 100,> 100,> 100,> 100,> 100,> 100,> 100,,> 100,> 100,> 100,> 100,,> 100,> 100,
COC(=O)C1C=CCON2CCc3c(n(C)c4ccccc34)C12 (configuration not stated),,> 100,,> 100,> 100,,,> 100,> 100,> 100,> 100,> 100,> 100,,,> 100
O=C1c2ccccc2C(=O)c2c(O)c(NCCCNCCO)cc(O)c21,,18.7,,14,24.6,23.7,,25.5,23.1,33,30.4,25.8,,,36.5,26.8
CC(=O)c1ccccc1NCC(=O)Nn1cnc2ccc(S(=O)(=O)Nc3ccccc3C(C)=O)cc2c1=O,> 100,> 100,> 100,> 100,> 100,> 100,> 100,> 100,> 100,> 100,> 100,> 100,> 100,,> 100,> 100
COC(=O)[C@H]1NC(=O)CCSSC1(C)C,> 100,> 100,> 100,> 100,> 100,> 100,> 100,> 100,> 100,> 100,> 100,> 100,> 100,> 100,> 100,
CCCC(C)n1c(C)nc2c1C(=O)c1ccccc1C2=O (configuration not stated),,> 100,,> 100,36.2,> 100,,,> 100,47.1,> 100,> 100,> 100,,23.8,> 100
CN(CCO)CCCC1COc2ccccc2O1 (configuration not stated),,> 100,> 100,> 100,> 100,> 100,> 100,,> 100,,> 100,> 100,> 100,,> 100,> 100
O=C1C=CC(=C(c2ccc(O)cc2)c2ccc(O)cc2)C=C1,,38.6,,29.7,21.2,25.2,,21,25.1,17.7,25.3,21,29.3,,14.5,10.2
Cc1ccc(C(=O)N(Cc2ccccc2)Cc2ccccc2)cc1N=NN(C)C,75.2,21.3,65.9,> 100,58.7,> 100,> 100,> 100,> 81.5,9.79,> 69.7,> 81.1,> 100,75,> 31.6,

SMILES,TGI (HS 578T breast) [µM],TGI (HT29 colon) [µM],TGI (MCF7 breast) [µM],TGI (MOLT-4 leukemia) [µM],TGI (NCI-H23 lung) [µM],TGI (OVCAR-8 ovarian) [µM],TGI (PC-3 prostate) [µM],TGI (RPMI-8226 leukemia) [µM],TGI (SF-295 CNS) [µM],TGI (SK-MEL-2 melanoma) [µM],TGI (SK-MEL-28 melanoma) [µM],TGI (SN12C renal) [µM],TGI (SNB-19 CNS) [µM],TGI (T-47D breast) [µM],TGI (UACC-62 melanoma) [µM],TGI (SNB-75 CNS) [µM]
CCOC(=O)c1sc2nc(SC)nc3c2c1NCN3c1ccc(F)c(F)c1,30.8,> 100,> 100,> 100,75.3,29.4,> 59.8,> 100,65.9,> 100,> 100,> 100,> 83.2,> 100,> 100,
CN(C)c1ccc(C=C2C(=O)N(c3ccccc3)N(c3ccccc3)C2=O)cc1,> 100,> 100,> 100,> 100,> 100,> 100,> 100,> 100,> 100,> 100,> 100,> 100,> 100,,> 100,> 100
COc1ccc2c(c1)C/C(=C\c1cccc3ccccc13)C2=O,> 100,> 100,> 100,> 100,24.2,> 100,> 100,> 100,,,> 100,> 100,> 100,,> 100,> 100
Cc1nc2c(o1)C(=Nc1ccccc1)c1ccccc1C2=O,,35.9,,48.3,5.25,13.4,,38.1,30.8,18.9,,22.8,23.7,,11,23.6
C[n+]1c(-c2ccc(/C=N/Nc3ccnc(N/N=C/c4ccc(-c5cn6ccsc6[n+]5C)cc4)n3)cc2)cn2ccsc21,> 100,> 100,> 100,64.9,> 100,> 100,79.9,> 100,,85.9,,> 100,> 100,,> 100,68.3
CCn1c(SC(C)C(=O)c2c(C)n(C)n(-c3ccccc3)c2=O)nc2ccccc2c1=O (configuration not stated),,> 100,,> 100,> 100,> 100,,> 100,> 100,> 100,> 100,> 100,,,> 100,> 100
CCCCCCNC(=O)CCC(NC(=O)c1ccc(N(C)Cc2cnc3nc(N)nc(N)c3n2)cc1)C(=O)NCCCCCC (configuration not stated),,> 100,34.1,> 100,> 100,> 100,> 100,> 100,30.3,> 100,> 100,> 100,> 100,> 100,> 100,> 100
CNC(=S)N/N=C(\C(=N/NC(=S)NC)c1ccccn1)c1ccccn1,99.1,> 100,> 100,,> 68.5,> 100,> 100,> 100,> 83.2,> 100,> 100,> 100,> 100,,> 100,> 92.6
COc1cc(CNc2cnc3cc(N)ccc3n2)cc(OC)c1OC,,55.8,,> 100,> 100,> 100,,,80.8,2.38,> 100,> 100,> 100,,> 100,> 100
O=C(O)C[C@@H]1[C@@H](O)[C@@H](O)CN2C(=O)c3ccccc3[C@H]12,,> 100,> 100,> 100,> 100,> 100,> 100,> 100,> 100,> 100,> 100,> 100,> 100,> 100,> 100,> 100
O=c1cc(NNc2cccc(F)c2)[nH]c(=O)[nH]1,> 100,29.9,,84.3,> 100,,> 100,47.4,> 100,> 100,> 100,> 100,> 100,31.7,> 100,> 100
CCN(CC)C(=S)Nc1ccc(-c2cc3ccc(O)cc3oc2=O)cc1,71.6,30.4,,> 100,> 100,> 100,> 100,95.8,> 100,49.3,> 100,> 100,> 100,,> 100,> 100
CCO[C@@]1(COCc2ccccc2)OC(=O)C[C@@H]1N1C(=O)OC[C@@H]1c1ccccc1,,> 100,> 100,> 100,> 100,> 100,> 100,> 100,> 100,> 100,> 100,> 100,> 100,> 100,> 100,> 100
CC1(C)O[C@@H](CCl)C[C@H](C#N)O1,,> 100,,> 100,> 100,> 100,,> 100,> 100,> 100,> 100,> 100,> 100,,> 100,> 100
Cc1c(-c2ccccc2)nn2cc(-c3ccccc3)nnc12,75.6,> 100,,> 100,> 100,> 100,> 100,> 100,> 100,47,> 100,> 100,> 100,> 100,92.3,> 100
COP(=O)(OC)C(NC(=O)C(F)(F)F)(c1ccccc1)C(F)(F)F (configuration not stated),,> 100,,> 100,> 100,> 100,,> 100,> 100,> 100,> 100,> 100,> 100,,> 100,> 100
